Source: patent publication US5880146A, “Inhibition of IL-12-induced IFN-γ synthesis by specific bis-phenol compounds as a method of immune modulation” (Fuji ImmunoPharmaceuticals Corporation, priority 1995, dated 1999)

Tests used:
[1] = test system: IL-12 induction of IFN-γ in PHA-activated human PBMC; assay: Screening assay for compounds which inhibit IL-12 induction of IFN-γ (ELISA); format: cell-based; conditions: 5 μg/ml, IL-2 25 U/ml + IL-12 0.5 ng/ml, 48 hr, single test, read-out: % INH of IFNγ
Protocol: Human peripheral blood monocytes (PBMC) were obtained from commercial sources as a leukophoresis from a healthy volunteer and were purified by centrifugation on a Ficoll-Hypaque (Pharmacia) gradient (1700 rpm for 20 min). The "buffy" coat containing the PBMC was diluted with serum-free culture medium (SF-RPMI) to a volume of 50 ml and collected by centrifugation at 1500 rpm for 5 min. Cells were resuspended in cell culture medium containing 10% fetal bovine serum (RPMI-10) and phytohemaglutinin (PHA - 10 μg/ml) at a density of 5×10^6 cells/ml and were cultured for 3 days at 37° C. in a humidified CO2 incubator. The PHA-activated cells were collected by centrifugation, washed three times with an equal volume of SF-RPMI and resuspended in fresh RPMI-10 (1×10^6 cells /ml). Aliquots (100 μl) were dispensed into the wells of multiple 96-well plates to give a final cell number of 10^5 per well. Test compounds, dissolved in dimethyl sulfoxide (DMSO) at 1 mg/ml, were first diluted in culture medium to an intermediate concentration of 20 μg/ml and then were added (50 μwell) to a specific well of the plate for each compound. Stimulation medium (50 μl/well) containing 10% serum, IL-2 and IL-12 was added to final concentrations of 25 U/ml and 0.5 ng/ml, respectively. Control wells receive no IL-2 or IL-12 (negative control) or received both interleukins but no test compound (positive control). The plates were incubated for 48 hr at 37° C. in a CO2 incubator at which time aliquots (20 μl) were removed for analysis of IFN-γ concentration by ELISA. A quantitative ELISA was developed by coating 96-well plates with an mouse monoclonal antibody against human IFN-γ, 1 μg/ml in phosphate buffered saline (PBS) (Pestka Biological Laboratories), overnight at 4° C. Unbound antibody was washed off by washing three times with PBS. Non-specific antibody binding was blocked with a solution of 1% bovine serum albumin (BSA) and 1% goat serum in PBS (150 μl/well) which was incubated for 2 hr at 37° C. After washing the blocked plates four times with PBS, test samples and dilutions of the IFN-γ standard are added in a final volume of 100 μl/well. Following an overnight incubation at 4° C., the plates are washed four times with PBS, and a polyclonal rabbit antiserum against human IFN-γ (1/10000 dilution--Petska Biological Laboratories) is added. After an additional incubation for 1 hr at 37° C. and four washes with PBS, a polyclonal donkey anti-rabbit detecting antibody, conjugated to horseradish peroxidase (1/700 dilution--Petska Biological Laboratories) is added for 1 hr at 37° C. The plates are then washed four times with PBS and 100 μl of K-blue substrate E(ILISA Technologies, Neogen Corp.) is added until the color in the wells containing the standard curve is sufficiently developed, at which time 100 μl of "Red-stop" solution (ELISA Technologies) is added. The absorbance of the solution within each well of the plate is then read at 650 nm using an ELISA plate reader (Dynatech MR7000). The amount of IFN-γ is calculated by comparing the optical density of the test sample with a standard curve derived from the dilutions of the control IFN-y. The amount of IFN-γ that is induced in the presence of both IL-2 and IL-12 generally ranges from 1200-2000 pg/ml while the amount produced in the absence of IL-12 is generally less than 50 pg/ml. Experimental data are shown in Table 2 which discloses a) the percent inhibition of IFNγ production, relative to a […], when the cells have been treated with a bis-compound at a final concentration of 5 μg/ml of the listed bis-compound (%INH or IFNγ) and b) the percent of cells which are viable after the treatment with 5 μg/ml of the various bis-compounds, determined by adding MTS to the media (% Viability). MTS is a chemical chromophore that is metabolized in the mitochondria of viable cells to produce a color which increases in intensity in proportion to the numbers of viable cells. […]

[2] = Toxicity of bis-compounds after single systemic dose; format: in vivo; conditions: mouse, in vivo, iv, 20% DMSO, 16% cremaphor, single dose
mice = assay: as above; format: in vivo; conditions: 20% DMSO, 16% cremaphor

SMILES	inhibition at 5 µg/mL [1] [%]	LD50 ([2]; conc. sol. 10 mg/ml) [mg/kg]	LD50 ([2]; conc. sol. 15 mg/ml) [mg/kg]	Results (Dead/Alive) (mice; 100 mg/kg IV, 10 mg/ml)	Results (Dead/Alive) (mice; 150 mg/kg IV, 10 mg/ml)	Results (Dead/Alive) (mice; 150 mg/kg IV, 15 mg/ml)	Results (Dead/Alive) (mice; 200 mg/kg IV, 15 mg/ml)
CCCCCCCC(c1cc(C)cc(C)c1O)c1cc(C)cc(C)c1O [Compound 51852]	109	–	–	–	–	–	–
Cc1cc(C)c(O)c(C(CC(C)CC(C)(C)C)c2cc(C)cc(C)c2O)c1 (centres unmarked) [Compound 51853, bis-1,1-[2-hydroxy-3,5-dimethylphenyl]-3,5,5-dimethyl hexan]	104	100 to 150	> 200	Alive	Dead	Alive	Alive
